Data reported in US9018248B2, “Fatty acid derivatives of catechins and methods of their use” (Genesis Group Inc., priority 2010, dated 2015).
Read-outs that look alike come from different tables or passages of the source.

How the values were obtained:
[1] = Incorporation into liposomes; assay type: physicochemical; details: 500 μM in ethanol added to MLV, 20 min, 37° C.
Protocol: Phosphotidylcholine (PC) (25 mg) was dissolved in a small amount of chloroform in a round bottom flask, followed by evaporation of the solvent with a rotary evaporator to obtain a thin layer film on the inner surface of the flask. Trace solvent was removed by nitrogen flush. An aqueous glucose solution (300 mM, 5 ml) was added to the flask, and the content was thoroughly vortexed and sonicated in an ultrosonicator, followed by a repeated freeze-thaw processing (4 times). The liposomal solution was diluted with 45 ml of phosphate buffer saline (PBS, 50 mM, pH7.4) and transferred into a centrifuge tube. The content was centrifuged at 13000 g for 5 min to remove the untrapped glucose. The sediment was re-suspended in 25 ml of PBS to obtain a final liposomal MLV. An aliquot (0.9 ml) of the above MLV was transferred to an Eppendorf tube containing 0.1 ml of test compounds (500 μM in ethanol) or ethanol blank. The content was mixed by vortexing and incubated for 20 min at 37° C. After incubation the mixture was centrifuged at 13000 g for 5 min, and the sediment was washed with 1 ml of 10% ethanol (in PBS), followed by a second centrifugation. The supernatants were combined and absorbance measured at 280 nm. A series of standard solutions in 10% ethanol at different concentrations was prepared for each test compound and their absorbance measured at 280 nm to construct a standard curve (absorbance VS. concentration). The un-incorporated test compounds in the supernatant were quantified using their corresponding standard curve. Percentage incorporation of each compound into the liposomes was calculated according to the following equation: % incorporation=100×(1−amount un-incorporated/amount added)=100×(1−C×2/50) where, C is the concentration of test compounds read from the standard curve. Discussion

iNOS = iNOS protein expression in LPS-stimulated RAW 264.7 macrophages (western blot); assay type: cell-based, murine; details: LPS 100 ng/ml, RAW 264.7, western blot; 20 and 40 μM for 1a-1c
Protocol: RAW 264.7 cells were cultured in Rosewell Park Memorial Institute (RPMI) 1640 media (without phenol red) supplemented with 10% endotoxin-free, heat-inactivated fetal calf serum, 100 units/ml penicillin, and 100 μg/ml streptomycin. When the cells reached a density of 2-3×10^6 cells/ml, they were activated by incubation in a medium containing E. coli lipopolysaccharide (LPS) (100 ng/ml). Various concentrations of compounds of the disclosure in dimethyl sulphoxide (DMSO) were added together with LPS. Cells were treated with 0.05% DMSO as the vehicle control. The stimulated murine macrophage cell line RAW 264.7 cells were washed with PBS and lysed in an ice-cold RIPA buffer (Tris-HCl, pH 7.2, 25 mM; 0.1% SDS; 1% Triton X-100; 1% sodium deoxycholate; 0.15 M NaCl; 1 mM EDTA) containing 1 mM phenylmethyl sulphonyl fluoride (PMSF), 10 μg/mL aprotinin, 1 mM sodium ortho-vanadate, and 5 μg/mL leupeptin. Protein concentrations were determined using the BCA method (Pierce, Rockford, Ill.). The samples (50 μg of protein) were mixed with 5-fold of sample buffer containing 0.3 M Tris-HCl (pH 6.8), 25% 2-mercaptoethanol, 12% sodium dodecyl sulphate (SDS), 25 mM EDTA, 20% glycerol, and 0.1% bromophenol blue. The mixtures were boiled at 100° C. for 5 min, prerun on a stacking gel, and then resolved by 12% SDS-polyacrylamide minigels at a constant current of 20 mA. For western blot, proteins on the gel were electro-transferred onto a […] immobile polyvinylidene fluoride (PVDF) membrane with a transfer buffer composed of 25 mM Tris-HCl (pH 8.9), 192 mM glycine, and 20% methanol, as described by Pan et al. (2000). […] The densities of the bands were quantitated using a densitometer (AlphaImager 2200 System). […] (7b) Inhibition Against LPS-Induced NO Production in RAW 264.7 Macrophage The LPS-induced NO production by the macrophages was determined as nitrite concentration in the culture medium according to the Griess reaction. […] The absorbance of the mixture at 550 nm was measured with an ELISA plate reader (Dynatech MR-7000; Dynatech Laboratories, Chantilly, Va., USA). […]

HCV NS3/4A protease = HCV NS3/4A protease (Hepatitis C virus genotype 1a, UniProt P27958); assay: Inhibition against HCV protease; assay type: biochemical; details: for IC50: HCV NS3/4A protease 0.5 μg/ml, 30 min, room temperature; for HCV protease inhibitory activity relative to embelin: fold stronger than embelin
Sequence of HCV NS3/4A protease (P27958 1027-1657): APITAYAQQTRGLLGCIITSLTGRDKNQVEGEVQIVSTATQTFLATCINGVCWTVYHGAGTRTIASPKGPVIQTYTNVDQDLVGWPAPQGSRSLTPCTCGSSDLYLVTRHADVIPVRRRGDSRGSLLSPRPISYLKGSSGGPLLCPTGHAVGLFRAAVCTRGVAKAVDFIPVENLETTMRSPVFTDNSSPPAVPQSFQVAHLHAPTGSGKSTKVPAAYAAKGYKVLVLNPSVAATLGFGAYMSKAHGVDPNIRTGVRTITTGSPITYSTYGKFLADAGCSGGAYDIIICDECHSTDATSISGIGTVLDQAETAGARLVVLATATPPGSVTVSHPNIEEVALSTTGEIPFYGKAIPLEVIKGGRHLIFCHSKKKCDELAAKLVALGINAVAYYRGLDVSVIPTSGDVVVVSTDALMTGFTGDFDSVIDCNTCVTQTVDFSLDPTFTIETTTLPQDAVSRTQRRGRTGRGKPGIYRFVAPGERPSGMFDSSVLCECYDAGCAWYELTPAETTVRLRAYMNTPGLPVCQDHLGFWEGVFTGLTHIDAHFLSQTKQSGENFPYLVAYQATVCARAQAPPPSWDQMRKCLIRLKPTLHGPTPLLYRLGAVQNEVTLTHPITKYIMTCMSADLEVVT
Sequence of HCV NS3/4A protease (P27958 1658-1711): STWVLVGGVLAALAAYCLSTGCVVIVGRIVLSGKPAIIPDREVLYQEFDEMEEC
Protocol: An aliquot (2 μl) of test compounds dissolved in DMSO was added to each well of a 384-well black Assay plate, followed by addition of 8 μl of HCV NS3/4A protease solution (0.5 μg/ml). The reaction was initiated by adding 10 μl of freshly diluted substrate (100× dilution of a DMSO stocking solution). The mixture was incubated at room temperature for 30 min, and the fluorescence intensity was measured at 485 nm for excitation and 535 nm for emission by a TECAN GENios plate reader. […] All fluorescence values were corrected with a substrate blank. Samples were assayed at different concentrations to plot a concentration VS. inhibition percentage curve, and IC50 values were obtained from the curve for each sample. A known HCV protease inhibitor, embelin, was used as a reference. Discussion

[2] = tested on: LPS-induced NO production; assay: LPS-induced NO production in RAW 264.7 macrophage (Griess reaction); assay type: cell-based, murine; details: RAW 264.7 macrophage, nitrite by Griess reaction, read-out: IC50, inhibition against LPS-induced NO production
Protocol: RAW 264.7 cells were cultured in Rosewell Park Memorial Institute (RPMI) 1640 media (without phenol red) supplemented with 10% endotoxin-free, heat-inactivated fetal calf serum, 100 units/ml penicillin, and 100 μg/ml streptomycin. When the cells reached a density of 2-3×10^6 cells/ml, they were activated by incubation in a medium containing E. coli lipopolysaccharide (LPS) (100 ng/ml). Various concentrations of compounds of the disclosure in dimethyl sulphoxide (DMSO) were added together with LPS. Cells were treated with 0.05% DMSO as the vehicle control. The stimulated murine macrophage cell line RAW 264.7 cells were washed with PBS and lysed in an ice-cold RIPA buffer (Tris-HCl, pH 7.2, 25 mM; 0.1% SDS; 1% Triton X-100; 1% sodium deoxycholate; 0.15 M NaCl; 1 mM EDTA) containing 1 mM phenylmethyl sulphonyl fluoride (PMSF), 10 μg/mL aprotinin, 1 mM sodium ortho-vanadate, and 5 μg/mL leupeptin. Protein concentrations were determined using the BCA method (Pierce, Rockford, Ill.). The samples (50 μg of protein) were mixed with 5-fold of sample buffer containing 0.3 M Tris-HCl (pH 6.8), 25% 2-mercaptoethanol, 12% sodium dodecyl sulphate (SDS), 25 mM EDTA, 20% glycerol, and 0.1% bromophenol blue. The mixtures were boiled at 100° C. for 5 min, prerun on a stacking gel, and then resolved by 12% SDS-polyacrylamide minigels at a constant current of 20 mA. For western blot, proteins on the gel were electro-transferred onto a […] immobile polyvinylidene fluoride (PVDF) membrane with a transfer buffer composed of 25 mM Tris-HCl (pH 8.9), 192 mM glycine, and 20% methanol, as described by Pan et al. (2000). Membrane blocking was then carried out at room temperature for 1 h in blocking solution (20 mM Tris-HCl pH 7.4, 125 mM NaCl, 0.2% Tween 20, 1% bovine serum albumin, and 0.1% sodium azide). The membrane was incubated with the primary antibody of iNOS and COX-2 at 4° C. overnight. The membranes were subsequently probed with selected IgG antibody conjugated to horseradish peroxidase (Transduction Laboratories, Lexington, Ky.) and visualized using enhanced chemiluminescence (ECL, Amersham). The densities of the bands were quantitated using a densitometer (AlphaImager 2200 System). All the membranes were stripped and reprobed for β-actin (Sigma Chemical Co., St. Louis, Mo.) as loading control. […] The inhibition of iNOS induction by compounds of the disclosure may be due to down regulation of iNOS gene expression. […] (7b) Inhibition Against LPS-Induced NO Production in RAW 264.7 Macrophage The LPS-induced NO production by the macrophages was determined as nitrite concentration in the culture medium according to the Griess reaction. […] The absorbance of the mixture at 550 nm was measured with an ELISA plate reader (Dynatech MR-7000; Dynatech Laboratories, Chantilly, Va., USA). […]

Structure (SMILES) | % incorporation into liposomes [1] [%] | Inhibition of iNOS protein expression (iNOS) | IC50 (HCV NS3/4A protease) [µM] | HCV protease inhibitory activity relative to embelin (HCV NS3/4A protease) | IC50 ([2]; Mus musculus, RAW264.7) [µM] | IC50 [2] [µM]
CCC=CCC=CCC=CCC=CCC=CCCCC(=O)Oc1cc(C(=O)OC2Cc3c(O)cc(O)cc3OC2c2cc(OC(=O)CCCC=CCC=CCC=CCC=CCC=CCC)c(O)c(OC(=O)CCCC=CCC=CCC=CCC=CCC=CCC)c2)cc(OC(=O)CCCC=CCC=CCC=CCC=CCC=CCC)c1O (stereo not shown) [Compound 1b] | 71.81 | strong dose-dependent relationship in suppressing the cytokine production | 0.006 | 1700 fold | – | –
CCC=CCC=CCC=CCC=CCC=CCC=CCCC(=O)Oc1cc(C(=O)OC2Cc3c(O)cc(O)cc3OC2c2cc(OC(=O)CCC=CCC=CCC=CCC=CCC=CCC=CCC)c(O)c(OC(=O)CCC=CCC=CCC=CCC=CCC=CCC=CCC)c2)cc(OC(=O)CCC=CCC=CCC=CCC=CCC=CCC=CCC)c1O (stereo not shown) [Compound 1c] | 80.91 | the most potent in inhibiting the induction of iNOS expression | 0.006 | 1700 fold | – | –
CCCCCCCCCCCCCCCCCC(=O)Oc1cc(C(=O)OC2Cc3c(O)cc(O)cc3OC2c2cc(OC(=O)CCCCCCCCCCCCCCCCC)c(O)c(OC(=O)CCCCCCCCCCCCCCCCC)c2)cc(OC(=O)CCCCCCCCCCCCCCCCC)c1O (stereo not shown) [Compound 1a, EGCG stearate] | 91.19 | – | 0.13 | approximately 80 fold | 40.7 | –
O=C(O[C@@H]1Cc2c(O)cc(O)cc2O[C@@H]1c1cc(O)c(O)c(O)c1)c1cc(O)c(O)c(O)c1 [EGCG, Epigallocatechin gallate, reference compound] | 65.17 | – | > 200 | – | 103 | 103
